Values joined by “and” are separate entries in the source; they are usually repeats but may differ in a detail not shown here. Equal values may be shown once.
Key:
[1] = system: Escherichia coli (MTCC2412); assay: Antibacterial activity, agar well diffusion; assay type: cell-based
Procedure: (§1) The antibacterial activity was determined by using the agar well diffusion method [[50], [51], [52]]. Two bacterial strains were used to evaluate the antibacterial efficacy of the synthesized compounds: one Gram-positive strain, Bacillus cereus (MTCC2128), and one Gram-negative strain, Escherichia coli (MTCC2412). Sterilized Mueller Hinton Broth (MHB) was used to cultivate the bacterial strains, and the mixture was incubated for 18 h at 37 °C. To evaluate the antibacterial activity, the inhibition zone (RIZ) radius encircled each well was determined in millimeters. The experiments were carried out duplicates. The incubation period for the plates was from 72 to 96 h at a temperature of 37 °C. The zone of inhibition was then looked for on the plates.

[2] = system: Bacillus cereus (MTCC2128); assay: Antibacterial activity, agar well diffusion; assay type: cell-based; details: for inhibition in words / zone of inhibition: 25 μl
Procedure: as §1

α-glucosidase = details: Fig. 1; cited from earlier work

Structure (SMILES) | inhibition in words [2] | zone of inhibition [2] | further results
COc1cc2onc(CCOCc3cn(-c4ccccc4OC)nn3)c2cc1Cl [Compound 9g, 5-Chloro-6-methoxy-3-(2-((1-(2-methoxyphenyl)-1H-1,2,3-triazol-4-yl)methoxy)ethyl) benzo[d]isoxazole] |  |  | zone of inhibition ([1]; 75 μl): 0.9 mm; zone of inhibition ([1]; 100 μl): 1.2 mm
COc1cc2onc(CCOCc3cn(-c4ccccc4C(F)(F)F)nn3)c2cc1Cl [Compound 9k, 5-Chloro-6-methoxy-3-(2-((1-(2-(trifluoromethyl)phenyl)-1H-1,2,3-triazol-4-yl)methoxy)ethyl)benzo[d]isoxazole] | moderate inhibition |  | 
COc1cc2onc(CCOCc3cn(-c4ccc(Br)c(C(F)(F)F)c4)nn3)c2cc1Cl [Compound 9o, 3-(2-((1-(4-Bromo-3-(trifluoromethyl)phenyl)-1H-1,2,3-triazol-4-yl)methoxy)ethyl)-5-chloro-6-methoxybenzo[d]isoxazole] | moderate inhibition |  | 
COc1cc2onc(CCOCc3cn(-c4cccc(Cl)c4)nn3)c2cc1Cl [Compound 9c, 5-Chloro-3-(2-((1-(3-chlorophenyl)-1H-1,2,3-triazol-4-yl)methoxy)ethyl)-6-methoxybenzo[d]isoxazole] |  | 0.4 mm | 
COc1cc2onc(CCOCc3cn(-c4ccc(Br)c(F)c4)nn3)c2cc1Cl [Compound 9i, 3-(2-((1-(4-Bromo-3-fluorophenyl)-1H-1,2,3-triazol-4-yl)methoxy)ethyl)-5-chloro-6-methoxybenzo[d]isoxazole] | moderate inhibition |  | 
COc1cc2onc(CCOCc3cn(-c4ccc(Br)cc4)nn3)c2cc1Cl [Compound 9n, 3-(2-((1-(4-Bromophenyl)-1H-1,2,3-triazol-4-yl)methoxy)ethyl)-5-chloro-6-methoxy benzo[d]isoxazole] | moderate inhibition |  | 
COc1cc2onc(CCOCc3cn(-c4ccccc4C)nn3)c2cc1Cl [Compound 9f, 5-Chloro-6-methoxy-3-(2-((1-(o-tolyl)-1H-1,2,3-triazol-4-yl)methoxy)ethyl)benzo[d] isoxazole] |  | 0.5 mm | antibacterial activity in words [2]: showed antibacterial activity
O=C1Nc2ccccc2/C1=N/N=C/c1ccc(OCc2cn(Cc3ccccc3F)nn2)cc1 [III] |  |  | IC50 (α-glucosidase): 16.4 µM
COc1ccc(-n2cc(COCCc3noc4cc(OC)c(Cl)cc34)nn2)cc1 [Compound 9h, 5-Chloro-6-methoxy-3-(2-((1-(4-methoxyphenyl)-1H-1,2,3-triazol-4-yl)methoxy)ethyl) benzo[d]isoxazole] |  | 0.5 mm | antibacterial activity in words [2]: showed antibacterial activity
COc1cc2onc(CCOCc3cn(-c4ccc(C(F)(F)F)cc4)nn3)c2cc1Cl [Compound 9l, 5-chloro-6-methoxy-3-(2-((1-(4-(trifluoromethyl)phenyl)-1H-1,2,3-triazol-4-yl)methoxy)ethyl)benzo[d]isoxazole] |  | 0.5 mm and 0.4 mm | antibacterial activity in words [2]: showed antibacterial activity
COc1cc2onc(CCOCc3cn(-c4ccc(C)c(C)c4)nn3)c2cc1Cl [Compound 9m, 5-Chloro-3-(2-((1-(3,4-dimethylphenyl)-1H-1,2,3-triazol-4-yl)methoxy)ethyl)-6-methoxy benzo[d]isoxazole] | moderate inhibition |  | 
COc1cc2onc(CCOCc3cn(-c4ccc(F)cc4)nn3)c2cc1Cl [Compound 9j, 5-Chloro-3-(2-((1-(4-fluorophenyl)-1H-1,2,3-triazol-4-yl)methoxy)ethyl)-6-methoxy benzo[d]isoxazole] | moderate inhibition |  | 
O=c1oc2ccccc2c(O)c1C(c1ccc(OCc2cn(-c3ccccc3Cl)nn2)cc1)c1c(O)c2ccccc2oc1=O [I] |  |  | IC50 (α-glucosidase): 13 µM

— PMC12179616, “Novel and efficient synthesis of 5-chloro-6-methoxy-3-(2-((1-(aryl)-1H-1,2,3-triazol-4-yl)methoxy)ethyl)benzo[d]isoxazole derivatives as new α-glucosidase inhibitors” (Biochemistry and Biophysics Reports, 2025)
